Here are results for four compounds from PubChem BioAssay (NCI).

Some test systems named below: OVCAR-3 ovarian; 786-0 renal; UACC-62 melanoma; HCT-15 colon; A549 NSCLC; T-47D breast; U251 CNS; MOLT-4 leukemia; HCT-116 colon; BT-549 breast.
Common to all, as to experiment: NCI-60 cell line screen, 48 h

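Briefly, cells in 96-well plates were exposed to five compound concentrations for 48 h, and endpoints were estimated by linear interpolation. GI50: concentration for 50% inhibition of growth. The concentration for full growth arrest is given as TGI.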

Regarding `CCOC(=O)N1C=CC(=C2C(=C3C=CN(C(=O)OCC)C=C3)C(=C3C=CN(C(=O)OCC)C=C3)C2=C2C=CN(C(=O)OCC)C=C2)C=C1`, the TGI is 81.1 µM in the experiment with OVCAR-3 ovarian; above 100 µM in the experiment with 786-0 renal; 45 µM in the experiment on UACC-62 melanoma; 44.1 µM in the experiment on HCT-15 colon; above 100 µM in the experiment with A549 NSCLC; above 100 µM with T-47D breast. For the same compound, the TGI with U251 CNS is 91.7 µM; with MOLT-4 leukemia, 45.1 µM; in the experiment on HCT-116 colon, 56.1 µM; in the experiment on BT-549 breast it was above 100 µM.

With `Nc1nc(-c2ccc(Cl)cc2)cc(-c2ccccc2)c1-c1nc2ccccc2o1`, the GI50 in the experiment on OVCAR-3 ovarian was 7.29 µM; in the experiment on 786-0 renal, 4.52 µM; in the experiment with UACC-62 melanoma, 15.8 µM; with HCT-15 colon, 6.15 µM; with A549 NSCLC it was 5.9 µM; in the experiment with T-47D breast, 10.2 µM. Moreover, the GI50 is 4.49 µM in the experiment with U251 CNS, 3.3 µM in the experiment with MOLT-4 leukemia, 3.21 µM in the experiment with HCT-116 colon and 13.5 µM in the experiment with BT-549 breast. The TGI with OVCAR-3 ovarian was 27.3 µM; in the experiment on 786-0 renal it was 19.8 µM; with UACC-62 melanoma, 30.7 µM; in the experiment with HCT-15 colon, 28.3 µM; with A549 NSCLC it was above 100 µM; with T-47D breast, 27.2 µM. Also, the TGI came out at 18.7 µM with U251 CNS, 11.4 µM with MOLT-4 leukemia, 9.17 µM in the experiment on HCT-116 colon and 28.3 µM with BT-549 breast.

As to `Cc1cc2nc(C(Cl)Cl)nc(-c3ccccc3)n2n1`, the GI50 with OVCAR-3 ovarian is 2.11 µM; in the experiment on 786-0 renal, 52.9 µM; in the experiment on UACC-62 melanoma it was 8.55 µM; in the experiment on HCT-15 colon, 4.11 µM; with A549 NSCLC it was 2.48 µM; with T-47D breast, 4 µM. In addition, the GI50 in the experiment on U251 CNS is 3.13 µM; in the experiment on MOLT-4 leukemia, 5.67 µM; with HCT-116 colon, 3.45 µM; in the experiment with BT-549 breast it was 17.4 µM. In addition, the TGI in the experiment on OVCAR-3 ovarian is 4.53 µM; with 786-0 renal, above 100 µM; in the experiment on UACC-62 melanoma it was 56 µM; in the experiment on HCT-15 colon, 20.8 µM; in the experiment with A549 NSCLC, 6.45 µM; in the experiment on T-47D breast it was 89.1 µM. The TGI in the experiment with U251 CNS is 24.3 µM; in the experiment with MOLT-4 leukemia, above 100 µM; with HCT-116 colon, 24 µM; with BT-549 breast, above 100 µM.

For the compound `C=C(CN(C)C)C(=O)c1ccc(Oc2ccccc2)cc1`, the TGI in the experiment with OVCAR-3 ovarian is 13.2 µM; in the experiment on 786-0 renal, 4.99 µM; with UACC-62 melanoma it was 13 µM; with HCT-15 colon it was 11 µM; in the experiment on A549 NSCLC, 42.6 µM; in the experiment on T-47D breast, 13.7 µM. For the same compound, the TGI was determined as 23.7 µM in the experiment on U251 CNS, 2.05 µM with MOLT-4 leukemia, 5.32 µM in the experiment on HCT-116 colon and 12.9 µM in the experiment with BT-549 breast.
